Test results as given in patent US20060100243A1 (priority 2004, published 2006).
“Also recorded” adds a separate entry of the source. Like-named read-outs stand apart in the source and are kept apart here.

Tests used:
[1] = target: T1, recombinant human dopamine transporter (Homo sapiens, UniProt Q01959); assay: [125I]RTI-55 binding, dopamine transporter in HEK 293 cells; settings: for Ki: HEK 293 cells; for potency at binding to the dopamine transporter and blocking dopamine reuptake: in words, compared with MPH / other samples
T1 construct: expressed in transfected cells

[2] = target: T1, recombinant human dopamine transporter; assay: dopamine reuptake inhibition in HEK 293 cells; assay type: cell-based; settings: for IC50: HEK 293 cells; for selectivity for the dopamine transporter over the norepinephrine transporter: in words, from binding and reuptake values; for NE/DA REUPTAKE: ratio of NE/DA reuptake IC50, selectivity for dopamine over norepinephrine transporter
[3] = target: T2, recombinant human serotonin transporter (Homo sapiens, UniProt P31645); assay: biochemical; assay type: binding
T2 construct: expressed in transfected cells

[4] = target: T2, recombinant human serotonin transporter; assay: serotonin (5HT) reuptake inhibition in HEK 293 cells; assay type: cell-based
[5] = target: T3, recombinant human norepinephrine transporter (Homo sapiens, UniProt P23975); assay: biochemical; assay type: binding
T3 construct: expressed in transfected cells

[6] = target: T3, recombinant human norepinephrine transporter; assay: cell-based
[7] = DOPAMINE [I125]-RTI-55 BINDING (Ki), RS/SR racemates table
[8] = DOPAMINE DA REUPTAKE (IC50), RS/SR racemates table
[9] = RS/SR racemates table, HEK 293 cells, read-out: SEROTONIN [I125]-RTI-55 BINDING (Ki)
[10] = SEROTONIN 5HT REUPTAKE (IC50), RS/SR racemates table, HEK 293 cells
[11] = NOREPINEPHRINE [I125]-RTI-55 BINDING (Ki)
[12] = DOPAMINE [I125]-RTI-55 BINDING (Ki), RR/SS racemates table
[13] = DOPAMINE DA REUPTAKE (IC50), RR/SS racemates table
[14] = RR/SS racemates table, HEK 293 cells, read-out: SEROTONIN [I125]-RTI-55 BINDING (Ki)
[15] = RS/SR racemates table, read-out: DOPAMINE [I125]-RTI-55 BINDING (Ki)
[16] = RS/SR racemates table, read-out: DOPAMINE DA REUPTAKE (IC50)
[17] = RS/SR racemates table, HEK 293 cells, read-out: NOREPINEPHRINE [I125]-RTI-55 BINDING (Ki)
[18] = RS/SR racemates table, HEK 293 cells, read-out: NOREPINEPHRINE NE REUPTAKE (IC50)
[19] = RR/SS racemates table, read-out: DOPAMINE [I125]-RTI-55 BINDING (Ki)
[20] = RR/SS racemates table, read-out: DOPAMINE DA REUPTAKE (IC50)
[21] = RR/SS racemates table, HEK 293 cells, read-out: NOREPINEPHRINE [I125]-RTI-55 BINDING (Ki)
[22] = RR/SS racemates table, HEK 293 cells, read-out: NOREPINEPHRINE NE REUPTAKE (IC50)
[23] = SEROTONIN [I125]-RTI-55 BINDING (Ki)
[24] = SEROTONIN 5HT REUPTAKE (IC50), RR/SS racemates table, HEK 293 cells
[25] = RR/SS racemates table, HEK 293 cells, read-out: SEROTONIN 5HT REUPTAKE (IC50)

T1 sequence (Q01959 whole entry): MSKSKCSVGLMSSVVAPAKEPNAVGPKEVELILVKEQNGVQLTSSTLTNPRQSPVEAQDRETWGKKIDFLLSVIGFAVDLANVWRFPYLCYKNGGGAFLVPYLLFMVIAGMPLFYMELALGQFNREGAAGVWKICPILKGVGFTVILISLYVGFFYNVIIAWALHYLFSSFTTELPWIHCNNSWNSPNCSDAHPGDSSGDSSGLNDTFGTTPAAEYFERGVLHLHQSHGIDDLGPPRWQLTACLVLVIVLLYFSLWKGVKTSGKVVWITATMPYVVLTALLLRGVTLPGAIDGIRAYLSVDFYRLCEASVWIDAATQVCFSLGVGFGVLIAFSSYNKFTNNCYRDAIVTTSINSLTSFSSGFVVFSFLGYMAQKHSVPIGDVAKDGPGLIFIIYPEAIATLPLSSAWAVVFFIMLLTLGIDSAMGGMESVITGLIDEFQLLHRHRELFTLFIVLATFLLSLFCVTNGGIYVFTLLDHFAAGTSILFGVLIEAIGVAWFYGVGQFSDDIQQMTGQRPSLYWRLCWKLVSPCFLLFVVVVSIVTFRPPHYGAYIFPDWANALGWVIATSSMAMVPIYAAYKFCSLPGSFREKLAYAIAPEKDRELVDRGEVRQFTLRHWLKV
T2 sequence (P31645 whole entry): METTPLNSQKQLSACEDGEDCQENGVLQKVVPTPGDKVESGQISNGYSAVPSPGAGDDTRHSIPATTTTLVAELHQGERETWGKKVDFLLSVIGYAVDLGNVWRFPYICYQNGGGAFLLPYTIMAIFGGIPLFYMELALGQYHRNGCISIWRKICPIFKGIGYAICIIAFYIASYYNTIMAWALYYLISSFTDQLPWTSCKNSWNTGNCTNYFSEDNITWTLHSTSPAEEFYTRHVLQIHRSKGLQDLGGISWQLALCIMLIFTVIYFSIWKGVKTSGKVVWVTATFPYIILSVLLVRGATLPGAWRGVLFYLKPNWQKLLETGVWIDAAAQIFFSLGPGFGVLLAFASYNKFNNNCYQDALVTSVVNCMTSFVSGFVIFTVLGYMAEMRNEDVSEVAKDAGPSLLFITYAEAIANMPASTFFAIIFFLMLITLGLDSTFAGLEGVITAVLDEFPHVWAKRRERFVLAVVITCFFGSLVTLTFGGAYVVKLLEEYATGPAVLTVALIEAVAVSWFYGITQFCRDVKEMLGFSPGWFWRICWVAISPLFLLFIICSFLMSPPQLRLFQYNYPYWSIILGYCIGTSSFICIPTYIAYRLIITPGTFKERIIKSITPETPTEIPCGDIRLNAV
T3 sequence (P23975 whole entry): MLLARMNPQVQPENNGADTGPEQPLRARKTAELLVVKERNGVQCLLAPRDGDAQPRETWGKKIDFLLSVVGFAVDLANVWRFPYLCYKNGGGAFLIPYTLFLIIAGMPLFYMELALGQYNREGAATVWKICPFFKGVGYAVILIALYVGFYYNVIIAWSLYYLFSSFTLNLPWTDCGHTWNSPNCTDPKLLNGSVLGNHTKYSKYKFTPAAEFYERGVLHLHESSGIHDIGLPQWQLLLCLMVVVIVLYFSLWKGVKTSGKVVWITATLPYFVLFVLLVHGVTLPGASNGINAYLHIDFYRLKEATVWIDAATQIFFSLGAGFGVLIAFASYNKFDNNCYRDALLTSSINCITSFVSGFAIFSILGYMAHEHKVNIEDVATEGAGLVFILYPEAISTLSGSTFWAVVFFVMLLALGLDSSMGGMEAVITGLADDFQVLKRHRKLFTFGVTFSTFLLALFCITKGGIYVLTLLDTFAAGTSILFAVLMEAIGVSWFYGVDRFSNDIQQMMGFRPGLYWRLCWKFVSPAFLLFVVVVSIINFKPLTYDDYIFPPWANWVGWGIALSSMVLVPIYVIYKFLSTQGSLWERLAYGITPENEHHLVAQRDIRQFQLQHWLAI

CCCC(c1ccc(Cl)cc1)C1CCCCN1 (racemic) [EE]
Ki [1, 7]: 0.38 ± 0.04 µM
IC50 [2, 8]: 0.45 ± 0.06 µM
Ki [3, 9]: 3.2 ± 1.1 µM
IC50 [4, 10]: 1.3 ± 0.007 µM
Ki [5, 11]: 1.4 ± 0.4 µM
IC50 ([6]; NORE[…] REUPTAKE (IC50)): 0.2 ± 0.05 µM

CC(C)(C)CC(c1ccc(Cl)cc1)C1CCCCN1 (racemic) [FF]
Ki [1, 7]: 0.6 ± 0.04 µM
IC50 [2, 8]: 0.67 ± 0.26 µM
Ki [3, 9]: 3.5 ± 1 µM
IC50 [4, 10]: 1.8 ± 0.6 µM
IC50 ([6]; NORE[…] REUPTAKE (IC50)): 0.73 ± 0.25 µM

CC(C)(C)CC(c1ccc(Cl)cc1)C1CCCCN1 (racemic) [F]
Ki [1, 12]: 0.12 ± 0.04 µM
IC50 [2, 13]: 0.06 ± 0.002 µM
selectivity for the dopamine transporter over the norepinephrine transporter [2]: enhanced selectivity
NE/DA REUPTAKE [2]: 8.7
Ki [3, 14]: 3.9 ± 0.5 µM
Ki [5, 11]: 1.4 ± 0.4 µM
IC50 ([6]; NORE[…] REUPTAKE (IC50)): 0.52 ± 0.11 µM

Clc1ccc(C(CC2CCCC2)C2CCCCN2)cc1 (racemic) [LL]
Ki [1, 15]: 0.31 ± 0.08 µM
IC50 [2, 16]: 0.18 ± 0.02 µM
Ki [5, 17]: 2.6 ± 0.8 µM
IC50 [6, 18]: 0.73 ± 0.23 µM

Clc1ccc(C(CC2CCCC2)C2CCCCN2)cc1 (racemic) [L]
Ki [1, 19]: 0.0094 ± 0.0015 µM
IC50 [2, 20]: 0.021 ± 0.001 µM
Ki [5, 21]: 1.7 ± 0.6 µM
IC50 [6, 22]: 0.31 ± 0.04 µM

CC(C)CC(c1ccc(C(C)C)cc1)C1CCCCN1 (racemic) [PP]
Ki [3, 23]: 1.7 ± 0.5 µM
IC50 [4, 10]: 1.7 ± 0.1 µM
Ki [5, 11]: 3.2 ± 0.6 µM

CC(C)CC(c1ccc(C(C)C)cc1)C1CCCCN1 (racemic) [P]
Ki [1, 12]: 3.3 ± 0.6 µM
IC50 [2, 13]: 4 ± 0.4 µM
NE/DA REUPTAKE [2]: 1.8
Ki [3, 23]: 3.3 ± 0.6 µM
IC50 [4, 24]: 4.7 ± 0.7 µM
Ki [5, 11]: 2.5 ± 0.6 µM
IC50 ([6]; NORE[…] REUPTAKE (IC50)): 7.1 ± 1.8 µM

CC(C)CC(c1ccc(Cl)cc1)C1CCCCN1 (racemic) [Sample DD]
Ki [1, 15]: 0.17 ± 0.05 µM
potency at binding to the dopamine transporter and blocking dopamine reuptake [1]: inactivity
IC50 [2, 16]: 0.38 ± 0.13 µM
Ki [5, 17]: 4.5 ± 1.5 µM
IC50 [6, 18]: 0.75 ± 0.17 µM

CCCC(c1ccc(Cl)cc1)C1CCCCN1 (racemic) [Sample E]
Ki [1, 19]: 0.011 ± 0.003 µM
potency at binding to the dopamine transporter and blocking dopamine reuptake [1]: enhanced potency; also recorded: most potent
IC50 [2, 20]: 0.0074 ± 0.0004 µM
selectivity for the dopamine transporter over the norepinephrine transporter [2]: enhanced selectivity
NE/DA REUPTAKE [2]: 6.8
Ki [3, 14]: 2.7 ± 0.6 µM
IC50 [4, 25]: 2.9 ± 1.1 µM
Ki [5, 21]: 0.2 ± 0.08 µM
IC50 [6, 22]: 0.05 ± 0.015 µM

CC(C)CC(c1ccc(Cl)c(Cl)c1)C1CCCCN1 (racemic) [Sample NN]
Ki [1, 15]: 0.031 ± 0.011 µM
potency at binding to the dopamine transporter and blocking dopamine reuptake [1]: considerably more potent; also recorded: most potent
IC50 [2, 16]: 0.013 ± 0.003 µM
Ki [3, 9]: 0.45 ± 0.04 µM
IC50 ([4]; RS/SR racemates table, HEK 293 cells, read-out: SEROTONIN 5HT REUPTAKE (IC50)): 0.29 ± 0.06 µM
Ki [5, 17]: 0.12 ± 0.03 µM
IC50 [6, 18]: 0.019 ± 0.003 µM

CC(C)CC(c1ccc(Cl)c(Cl)c1)C1CCCCN1 (racemic) [Sample N]
Ki [1, 19]: 0.001 ± 0.0005 µM
potency at binding to the dopamine transporter and blocking dopamine reuptake [1]: enhanced potency; also recorded: most potent
IC50 [2, 20]: 0.0055 ± 0.0013 µM
NE/DA REUPTAKE [2]: 1.6
Ki [3, 14]: 1.6 ± 0.1 µM
IC50 [4, 25]: 1.1 ± 0.3 µM
Ki [5, 21]: 0.025 ± 0.009 µM
IC50 [6, 22]: 0.009 ± 0.001 µM

COC(=O)C(c1ccc(Cl)cc1)C1CCCCN1 (single isomer, unassigned) [AA]
Ki [1, 7]: 2 ± 0.6 µM
IC50 [2, 8]: 2.7 ± 1 µM
Ki [3, 23]: 5.9 ± 0.2 µM
IC50 ([4]; SEROTONIN 5HT REUPTAKE (IC50), RS/SR racemates table, in μM): > 10 µM
IC50 [6, 18]: 1.4 ± 0.4 µM

COC(=O)C(c1ccc(Cl)cc1)C1CCCCN1 (single isomer, unassigned) [A]
Ki [1, 12]: 0.025 ± 0.008 µM
IC50 [2, 13]: 0.011 ± 0.002 µM
NE/DA REUPTAKE [2]: 1.0
Ki [3, 23]: 6 ± 0.1 µM
Ki [5, 21]: 0.11 ± 0.04 µM
IC50 [6, 22]: 0.011 ± 0.003 µM

CCC(c1ccc(Cl)cc1)C1CCCCN1 (single isomer, unassigned) [BB]
Ki [1, 7]: 3.5 ± 1 µM
IC50 [2, 8]: 2.2 ± 0.3 µM
Ki [3, 23]: 5.7 ± 0.8 µM
IC50 [4, 10]: 2 ± 0.6 µM
Ki ([5]; RS/SR racemates table, in μM, read-out: NOREPINEPHRINE [I125]-RTI-55 BINDING (Ki)): > 10 µM

CCC(c1ccc(Cl)cc1)C1CCCCN1 (single isomer, unassigned) [B]
Ki [1, 12]: 0.037 ± 0.01 µM
IC50 [2, 13]: 0.023 ± 0.005 µM
selectivity for the dopamine transporter over the norepinephrine transporter [2]: enhanced selectivity
NE/DA REUPTAKE [2]: 9.1
Ki [3, 23]: 7.8 ± 0.8 µM
IC50 [4, 24]: 2.4 ± 0.4 µM
Ki [5, 21]: 0.36 ± 0.06 µM
IC50 [6, 22]: 0.21 ± 0.03 µM
